Source: patent publication US8343475B2, “Small cationic antimicrobial peptides” (priority 2006, dated 2013)
Residues, ends and D or L forms follow the SMILES beside them.

Tests used:
[1] = system: Pseudomonas aeruginosa PAO1 strain H103; format: cell-based; settings: laboratory strain P. aeruginosa PAO1
Summary of the method: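 Modified broth microdilution MIC in Mueller Hinton medium, peptides diluted in 0.01% acetic acid/0.2% BSA, polypropylene plates. Inoculum 2-7×10^5 CFU/ml, overnight at 37 °C; MIC is the lowest concentration with no visible growth.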

[2] = system: MCP-1 release by human PBMC; test: Chemokine induction in PBMC (capture ELISA); format: cell-based; settings: background (204) subtracted
Summary of the method: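 Heparinized blood from healthy volunteers; Ficoll-isolated human PBMC (7.5×10^5) treated with peptides at 20 or 100 μg/ml for 24 hours at 37° C, 5% CO2. Cell-free supernatants assayed for MCP-1 by capture ELISA.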

[3] = system: MCP-3 release by human PBMC; test: Chemokine induction in PBMC (capture ELISA); format: cell-based; settings: background (6) subtracted
Summary of the method: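 Human PBMC from healthy donors (Ficoll-isolated), 7.5×10^5 cells at 0.75–1×10^6 cells/ml, treated with peptides at 20 or 100 μg/ml for 24 h at 37° C, 5% CO2. MCP-3 in cell-free supernatants measured by capture ELISA.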

[4] = system: Staphylococcus aureus ATCC25923; format: cell-based; settings: ATCC25923
Summary of the method: (§1)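 First, peptides were serially diluted at ten times final strength in 0.01% acetic acid with 0.2% BSA. These were then added to Mueller Hinton medium and inoculated with overnight-grown organisms at 2-7×10^5 CFU/ml. After overnight incubation at 37° C, the MIC was scored as the concentration without growth.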

[5] = system: Enterococcus faecalis ATCC29212; format: cell-based; settings: ATCC29212
Summary of the method: as §1

[6] = system: Liverpool Epidemic Strains; format: cell-based, Pseudomonas aeruginosa
Summary of the method: (§2)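 Modified broth microdilution in Mueller Hinton medium, peptides serially diluted in 0.01% acetic acid with 0.2% BSA in polypropylene plates. Inoculum 2-7×10^5 CFU/ml, overnight incubation at 37° C; MIC taken as lowest concentration with no visible growth.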

[7] = system: multidrug resistant Brazilian clinical isolates of P. aeruginosa; format: cell-based, Pseudomonas aeruginosa
Summary of the method: as §2

[8] = system: CXCL1 (Gro-α) release by human PBMC; test: Chemokine induction in PBMC (capture ELISA); format: cell-based; settings: background (196) subtracted
Summary of the method: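 Human PBMC from healthy donors' heparinised blood (Ficoll), 7.5×10^5 cells treated with 20 or 100 μg/ml peptide for 24 h at 37° C, 5% CO2. Cell-free supernatants assayed for CXCL1 by capture ELISA.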

ESBL E. cloacae = format: cell-based, Enterobacter cloacae
Summary of the method: as §2

[9] = system: ESBL E. coli clinical strain 64771; format: cell-based; settings: ESBL clinical strain 64771
Summary of the method: (§3)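 Broth microdilution in Mueller Hinton medium, peptides serially diluted in 0.01% acetic acid with 0.2% BSA in polypropylene plates. Inoculum 2-7×10^5 CFU/ml, incubated overnight at 37° C. MIC is the lowest concentration with no visible growth.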

[10] = system: multidrug resistant Pseudomonas maltophilia ATCC13637; format: cell-based
Summary of the method: as §3

[11] = system: VRE Vancomycin resistant Enterococcus faecalis clinical isolates; format: cell-based
Summary of the method: as §3

[12] = system: ESBL Klebsiella pneumonia clinical strain 63575; format: cell-based
Summary of the method: as §3

[13] = system: VRE Vancomycin resistant Enterococcus faecium clinical isolates; format: cell-based
Summary of the method: as §3

[14] = system: clinical isolates of MRSA; format: cell-based, Staphylococcus aureus
Summary of the method: as §2

## CC[C@H](C)[C@H](NC(=O)[C@H](CCCNC(=N)N)NC(=O)[C@@H](N)CCCCN)C(=O)N[C@@H](CCSC)C(=O)N[C@@H](CCCCN)C(=O)N[C@@H](CC(C)C)C(=O)N[C@@H](CCCCN)C(=O)N[C@@H](CCSC)C(=O)N[C@@H](CCCNC(=N)N)C(N)=O [HHC133, KRIMKLKMR] (H-KRIMKLKMR-NH2; N-terminus assumed)
[1]
  antimicrobial activity against P. aeruginosa PAO1 (in words): did not return any generally active substances
[2]; 20 μg/ml peptide
  Chemokine induction MCP-1: 195 pg/mL
[2]; 100 μg/ml peptide
  Chemokine induction MCP-1: 444 pg/mL
[3]; 20 μg/ml peptide
  Chemokine induction MCP-3: 0 pg/mL
[3]; 100 μg/ml peptide
  Chemokine induction MCP-3: 2 pg/mL
[4]
  MIC: >226 µM
[5]
  MIC: >226 µM
[6]
  MIC: >226 µM
[7]
  MIC: >226 µM
[8]; 20 μg/ml peptide
  Chemokine induction Gro-α: 15 pg/mL
[8]; 100 μg/ml peptide
  Chemokine induction Gro-α: 81 pg/mL
ESBL E. cloacae
  MIC: >226 µM
[9]
  MIC: >226 µM
[10]
  MIC: >226 µM
[11]
  MIC: >226 µM
[12]
  MIC: >226 µM
[13]
  MIC: >226 µM
[14]
  MIC: >226 µM
